“Also recorded” adds a separate entry of the source.
Experiments:
[1] = tested on: adenovirus 7 (AdV7); assay: CPE reduction assay, adenovirus 7; assay type: cell-based, human adenovirus
Protocol: Similar experiments were carried out with filociclovir against adenovirus 6, adenovirus 7, and adenovirus 8.

[2] = tested on: AdV6; assay: Immunofluorescence assay (DBP and hexon staining), AdV6-infected A549 cells; assay type: cell-based, human adenovirus; conditions: 27 hours post-infection
Protocol: Human A549 cells on glass coverslips in 6-well plates were infected at an MOI of 5 PFU/cell with either AdV5 or AdV6 or were mock-infected. After 1 hour, filociclovir was added to a final concentration of 0, 4, 10, or 40 μM. At 27 hours post-infection, the A549 cells were fixed in paraformaldehyde (3.7% in PBS) and permeabilized with methanol. Cells were stained for the Adenovirus DNA-binding protein and adenovirus hexon. DBP staining will be […] and uniform during early AdV infection (prior to AdV DNA replication). DBP associates with replication centers as the infection progresses. The replication centers are initially small “dots” (each dot results from one incoming AdV genome). The replication centers will expand and “multiply” as DNA replication takes place. The nuclei become enlarged and misshapen as infection progresses. AdV hexon, the most abundant component of the AdV viral capsid, is not expressed until after DNA replication is taking place and is therefore considered to be a “late” AdV protein.

[3] = tested on: AdV6; assay: Delayed treatment with 10 mg/kg filociclovir after AdV6 challenge in immunosuppressed hamsters (Example 7); assay type: in vivo, Syrian hamsters
Protocol: Aliquots are allowed to equilibrate to room temperature before dosing.
Hamsters were distributed into 8 groups, 15 hamsters each (Table 5), immunosuppressed as described above, and then injected i.v. with vehicle or 4×10^10 plaque forming units (PFU) of AdV6 per kg. Filociclovir was administered p.o. at 10 mg/kg q.d., starting at one day before, or 1, 2, 3, or 4 days after AdV6 injection.
Body weights and any signs of morbidity in the hamsters were recorded daily. At 7 days post challenge, 5 hamsters from each group (designated at the start of the experiment) were sacrificed, and gross pathological observations were performed.

## Nc1nc2c(ncn2/C=C2/CC2(CO)CO)c(=O)[nH]1 [FCV, 2-amino-9-{(Z)-[2,2-bis(hydroxymethyl)cyclopropylidene]methyl}-3,9-dihydro-6H-purin-6-one]
[1]
  CC50/EC50: >144
[1]; Human mastadenovirus B, unit not given in Table 2 (Table 1 in μM)
  EC50: 1.04 µM
[2]; AdV6, 4 μM
  hexon-positive cells: Some hexon-positive cells
[2]; AdV6, 10 μM
  hexon-positive cells: extremely few hexon-positive cells
[2]; AdV6, 40 μM
  hexon-positive cells: No hexon-positive cells
[3]; 10 mg/kg p.o. q.d. started day −1, +1, +2, +3 (p=0.0005) or +4 (p=0.0023) vs AdV6+Vehicle, listed as filociclovir
  morbidity and mortality (survival): efficacious; also recorded: effective to prevent morbidity and mortality
[3]; 10 mg/kg p.o. q.d., up to 4 days post-infection
  prevention of pathology caused by intravenous AdV6 infection: safe and effective
[3]; 10 mg/kg, start 4 days post challenge
  AdV6 replication in the liver: inhibits AdV6 replication in the liver
[3]; 10 mg/kg, start up to 4 days post challenge, day +4 p=0.1452
  liver pathology, transaminase (ALT) levels: mitigates liver pathology

Source: patent publication US20220168310A1, “INHIBITION OF ADENOVIRUS WITH FILOCICLOVIR” (Microbiotix, Inc., priority 2019, published 2022)
